Counter-ions that a name gives are not always drawn. Like-named read-outs stand apart in the source and are kept apart here.
Legend:
SARS-CoV-2 M^pro = SARS-CoV-2 M^pro (Severe acute respiratory syndrome coronavirus 2, UniProt P0DTD1); experiment: cell-based; conditions: transfected HEK-293T cells, 24 h; for IC50: read-out: IC50 (approximate), SARS-CoV-2 M^pro activity, GFP normalized to TagBFP2
HCoV-OC43 = experiment: microbe, parasite or virus in culture; type: cell-based; conditions: for IC50: read-out: IC50, HCoV-OC43 antiviral assay
A549 cells [1] = conditions: human
c-Kit enzyme = c-Kit enzyme (Homo sapiens, UniProt P10721); experiment: Luminescence-based in vitro c-Kit kinase assay; type: biochemical
M^pro = conditions: masitinib activity on M^pro; read-out: inhibition constant, Ki; cited from earlier work
A549 cells [2] = experiment: Compound toxicity assay, live cell imaging of A549 cell growth; conditions: compared to DMSO
[3] = A549+hACE2 cells, MOI 0.1, 48 h, normalized to DMSO

Sequence of c-Kit enzyme (P10721 26-976): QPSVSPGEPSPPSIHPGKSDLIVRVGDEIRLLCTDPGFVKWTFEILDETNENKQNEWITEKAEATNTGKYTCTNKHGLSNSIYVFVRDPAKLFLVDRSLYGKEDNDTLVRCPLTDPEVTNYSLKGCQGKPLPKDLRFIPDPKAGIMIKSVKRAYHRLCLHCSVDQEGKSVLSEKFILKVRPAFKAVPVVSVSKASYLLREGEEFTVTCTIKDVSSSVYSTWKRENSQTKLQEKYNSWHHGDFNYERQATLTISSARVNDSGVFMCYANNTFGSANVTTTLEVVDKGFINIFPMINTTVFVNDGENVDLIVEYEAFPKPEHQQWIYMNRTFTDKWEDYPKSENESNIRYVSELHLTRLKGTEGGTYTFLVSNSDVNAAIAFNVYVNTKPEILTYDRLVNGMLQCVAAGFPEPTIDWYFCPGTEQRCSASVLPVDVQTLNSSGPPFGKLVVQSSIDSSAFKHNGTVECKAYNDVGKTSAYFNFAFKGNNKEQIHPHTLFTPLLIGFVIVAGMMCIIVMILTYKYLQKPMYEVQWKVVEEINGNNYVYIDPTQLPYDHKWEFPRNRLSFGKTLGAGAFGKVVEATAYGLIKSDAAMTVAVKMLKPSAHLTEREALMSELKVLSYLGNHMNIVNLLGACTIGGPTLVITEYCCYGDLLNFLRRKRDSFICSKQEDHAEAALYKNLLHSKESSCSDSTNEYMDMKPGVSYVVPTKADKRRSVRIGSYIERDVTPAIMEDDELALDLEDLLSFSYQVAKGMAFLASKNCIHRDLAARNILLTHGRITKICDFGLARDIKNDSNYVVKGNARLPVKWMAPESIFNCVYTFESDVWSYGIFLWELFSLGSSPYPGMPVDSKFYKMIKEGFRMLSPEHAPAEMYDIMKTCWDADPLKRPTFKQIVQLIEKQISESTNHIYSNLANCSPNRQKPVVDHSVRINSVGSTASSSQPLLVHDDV

Row | SMILES | IC50 (HCoV-OC43; Betacoronavirus 1, OC43, 48 h) | Doubling Time (A549 cells [1]; 0.3 µM) | Doubling Time (A549 cells [1]; 1 µM) | Doubling Time (A549 cells [1]; 3 µM) | Doubling Time (A549 cells [1]; 10 µM) | IC50 (c-Kit enzyme) | also measured
1 | Cc1ccc(C(=O)Nc2ccc(C)c(Nc3nc(-c4cccnc4)cs3)c2)cc1 [M3] | 3.99 µM | 22.13 h | 21.49 h | 22.49 h | 30.76 h | 0.077 µM | IC50 (SARS-CoV-2 M^pro): 2.54 µM
2 | Cc1ccc(OC(=O)c2ccc(CN3CCN(C)CC3)cc2)cc1Nc1nc(-c2cccnc2)cs1 [M5] | – | 22.37 h | 21.95 h | 21.83 h | 25.19 h | – | IC50, HCoV-OC43 antiviral assay (HCoV-OC43; [3]): no measurable antiviral activity
3 | Cc1ccc(NC(=O)c2ccc(CN3CCN(C)CC3)cc2)cc1Nc1nc(-c2cccnc2)cs1 [masitinib] | – | – | – | – | – | – | Ki (M^pro): 2.6 µM
4 | Cc1ccc(NC(=O)c2ccc(CN3CCN(C)CC3)cc2)cc1Nc1nc(-c2cccnc2)cs1 [masitinib (Original), masitinib] | 1.71 µM | – | – | – | – | – | –
5 | CC(=O)Nc1ccc(C)c(Nc2nc(-c3cccnc3)cs2)c1 [M4] | 5.7 µM | 22.01 h | 21.47 h | 22.28 h | 37.36 h | – | –
6 | Cc1ccc(NC(=O)c2ccc(CN3CCN(C)CC3)cc2O)cc1Nc1nc(-c2cccnc2)cs1 [M2] | 6.77 µM | 21.52 h | 21.44 h | 21.57 h | 33.63 h | 0.233 µM | IC50 (SARS-CoV-2 M^pro): 8.35 µM
7 | Cc1ccc(NC(=O)c2ccc(CN3CCN(C)CC3)cc2)cc1Nc1nc(-c2cccnc2)cs1 [masitinib (TFA), Masitinib trifluoroacetate salt] | – | – | – | – | – | – | effect on cell growth (in words) (A549 cells [2]; 3 µM dose): still inhibited cell division; effect on cell growth (in words) (A549 cells [2]; 10 µM compound dose): completely inhibited cell growth; IC50 (HCoV-OC43; [3]): 3.98 µM
8 | Cc1ccc(NC(=O)c2ccc(CN3CCN(C)CC3)c(O)c2)cc1Nc1nc(-c2cccnc2)cs1 [M1] | 4.7 µM | 21.75 h | 21.89 h | 23.72 h | 52.78 h | 1.09 µM | IC50 (approximate), SARS-CoV-2 M^pro activity, GFP normalized to TagBFP2 (SARS-CoV-2 M^pro): did not show inhibition of M^pro activity
